Reference: patent US20250302795A1, “SMALL MOLECULE COMPOUNDS WITH NEGATIVE REGULATORY EFFECTS ON Nrf2 SIGNALING [sequence] AND THEIR POTENTIAL APPLICATIONS” (Beijing Hebabiz Biotechnology Co., Inc., priority 2022, published 2025)

Experiments:
Assay type in all cases: in vivo, rat
[1] = Body weight of rats, high-fat diet + CCl4 non-alcoholic steatohepatitis model; conditions: positive control group, in g (unit assumed)
Experimental: (§1) The normal control group were fed a standard diet while the other groups were exclusively fed a high-fat diet consisting of 88% basal diet +10% lard +2% cholesterol for the initial six weeks. Starting from the seventh week, they received subcutaneous injections of a 30% CCl4 olive oil solution at a dosage of 0.2 ml/100 g behind their back twice per week for a total of four times. Once the model was successfully replicated, the corresponding drugs were administered orally (10 ml/kg) in each treatment group, and both the normal control group and the model group received equal volumes of a 0.5% CMC-Na solution once daily for ten consecutive weeks. Throughout the experimental period, the rats were provided with ad libitum access to food and water, while the animal chamber was maintained under controlled conditions of quietness, natural lighting, a temperature of 25±0.5° C., and a humidity level of 55±5%. The rats' body weights were measured once per week and recorded.
The weight changes of rats in each group were compared by conducting weekly weigh-ins after the experiment.

[2] = test system: rats with nonalcoholic steatohepatitis induced by a high-fat diet and CCl4; assay: Liver indices, non-alcoholic steatohepatitis model induced by high-fat diet and CCl4; conditions: positive control group
Experimental: as §1
After blood sampling from the abdominal aorta of rats, the liver tissue was isolated, rinsed with normal saline solution, dried using filter paper, weighed accurately, and subsequently calculated the Liver indices: Liver indices=wet liver weight/body weight×100%.

[3] = test system: rats with nonalcoholic steatohepatitis induced by a high-fat diet and CCl4; assay: Four indices of serum hepatic fibrosis, high-fat diet and CCl4 model; conditions: positive control group
Experimental: as §1, with “Starting” for “The normal control group were fed a standard diet while the other groups were exclusively fed a high-fat diet consisting of 88% basal diet +10% lard +2% cholesterol for the initial six weeks. Starting”
At the end of the tenth week of administration, all rats underwent a 16-hour fasting period following their final administration and were intraperitoneally injected with a 20% ulinastatin solution (10 ml/kg) for anesthesia. Subsequently, blood samples were collected from the abdominal aorta and allowed to stand for one hour, and then centrifuged at 4° C. for fifteen minutes at a speed of 3000 r/min. Finally, the upper serum was stored at −80° C. Following the instructions provided with the biochemical index detection kit, levels of HDL-C, LDL-C, NEFA, AST, ALT, UA, TC, TG, PCIII, IV-C LN and HA in rat serum were determined.

[4] = test system: rats with nonalcoholic steatohepatitis induced by a high-fat diet and CCl4; assay: Liver histopathology (HE, oil red, Masson staining), high-fat diet and CCl4 model; conditions: positive control groups and NR218 high-, medium-, low-dose groups
Experimental: as §1
After collecting blood samples from the abdominal aorta of rats, the liver tissue was isolated and fixed in a 10% neutral formalin solution. Following standard procedures for embedding, sectioning, dewaxing, staining, clearing, and sealing, the liver tissues were subjected to HE (hematoxylin-eosin), Masson's trichrome, and oil red staining techniques respectively. […]

## COC(=O)c1cc(OC)c2c(c1-c1c(CO)cc(OC)c3c1OCO3)OCO2 [Bicyclol]
[1]; week 1
  body weight: 195.81 ± 5.12
[1]; week 2
  body weight: 252.07 ± 9.62
[1]; week 3
  body weight: 293.51 ± 34.27
[1]; week 4
  body weight: 366.45 ± 19.21
[1]; week 5
  body weight: 404.78 ± 18.71
[1]; week 6
  body weight: 438.13 ± 24.81
[1]; week 7
  body weight: 471.76 ± 26.05
[1]; week 8
  body weight: 493.73 ± 28.93
[1]; week 9
  body weight: 500.11 ± 35.71
[1]; week 10
  body weight: 516.75 ± 35.02
[1]; week 11
  body weight: 483.11 ± 32.67
[1]; week 12
  body weight: 486.89 ± 36.07
[1]; week 13
  body weight: 508.69 ± 60.33
[1]; week 14
  body weight: 526.54 ± 51.97
[1]; week 15
  body weight: 536.32 ± 44.50
[1]; week 16
  body weight: 559.17 ± 38.21
[1]; week 17
  body weight: 573.81 ± 44.40
[1]; week 18
  body weight: 581.09 ± 46.08
[2]
  Liver Indices: 3.48 ± 0.41 %
[3]
  HA: 45.78 ± 22.99 µg/L
  IV-C: 13.22 ± 4.50 µg/L
  LN: 110.64 ± 44.60 µg/L
  PC-III: 8.78 ± 1.87 µg/L
[4]
  Oil red O staining of liver tissue (in words): significantly ameliorated steatosis severity and reduced lipid droplet content
